Data on six molecules can be found in PubChem BioAssay AID1259407 (Chemical Carcinogenesis Research Information System (CCRIS), 2018).

SMILES strings stand for the structures. The source made the active and inactive calls. The rule behind the calls is not given here.

In this data set the test system is CCRIS mutagenicity, Ames/micronucleus/aberration tests. The data set can be described thus: CCRIS mutagenicity studies.
Where [1] appears, read: Test System: AMES SALMONELLA TYPHIMURIUM, Strain/Indicator: TA98, Metabolic Activation: NONE, Method: PREINCUBATION
Where [2] appears, read: Test System: AMES SALMONELLA TYPHIMURIUM, Strain/Indicator: TA100, Metabolic Activation: NONE, Method: STANDARD PLATE.

Consider `CCNc1nc(Cl)nc(NC(C)(C)C#N)n1`, for which the mutagenic call is “inactive; negative for aberrations but cell cycle delay at 250 and 350 ug/ml doses” (End Point: In vitro chromosomal aberrations, Test System: Human lymphocytes, Metabolic Activation: None); “inactive; negative” (End Point: In vitro chromosomal aberrations, Test System: Human lymphocytes, Metabolic Activation: Rat, liver, S-9, Aroclor 1254); “inactive; negative, cytotoxicity at highest dose” (Test System: Ames Salmonella typhimurium, Strain/Indicator: TA97a, Metabolic Activation: None, Method: Plate incorporation); “inactive; negative, cytotoxicity at highest dose” (Test System: Ames Salmonella typhimurium, Strain/Indicator: TA97a, Metabolic Activation: Rat, liver, S-9, Aroclor 1254, Method: Plate incorporation); “inactive; negative, cytotoxicity at highest dose” (Test System: Ames Salmonella typhimurium, Strain/Indicator: TA98, Metabolic Activation: None, Method: Plate incorporation); “inactive; negative, cytotoxicity at highest dose” (Test System: Ames Salmonella typhimurium, Strain/Indicator: TA98, Metabolic Activation: Rat, liver, S-9, Aroclor 1254, Method: Plate incorporation). The mutagenic call reads like this: (Test System: Ames Salmonella typhimurium, Strain/Indicator: TA100, Metabolic Activation: None, Method: Plate incorporation) “inactive; negative, cytotoxicity at highest dose”; (Test System: Ames Salmonella typhimurium, Strain/Indicator: TA100, Metabolic Activation: Rat, liver, S-9, Aroclor 1254, Method: Plate incorporation) “inactive; negative, cytotoxicity at highest dose”; (Test System: Ames Salmonella typhimurium, Strain/Indicator: TA1535, Metabolic Activation: None, Method: Plate incorporation) “inactive; negative, cytotoxicity at highest dose”; (Test System: Ames Salmonella typhimurium, Strain/Indicator: TA1535, Metabolic Activation: Rat, liver, S-9, Aroclor 1254, Method: Plate incorporation) “inactive; negative, cytotoxicity at highest dose”; (Test System: UDS HUMAN PERIPHERAL BLOOD LYMPHOCYTES, Strain/Indicator: THY INCORP, Metabolic Activation: NONE, Method: LIQUID SCINTILLATION) “inactive; negative”; (Test System: UDS HUMAN PERIPHERAL BLOOD LYMPHOCYTES, Strain/Indicator: THY INCORP, Metabolic Activation: RAT, LIVER, S-9, PHENOBARBITAL AND BETA-NAPHTHOFLAVONE, Method: LIQUID SCINTILLATION) “inactive; negative”. Also, the mutagenic call (Test System: UDS rat primary hepatocytes, Strain/Indicator: Thymidine incorporation, Metabolic Activation: None, Method: Autoradiography) was “active; positive at >/= 1 um”.

As to `Cc1c2c(c(C)c3ccccc13)[C@H]1O[C@H]1c1ccccc1-2`, under setting [1], the mutagenic call is “active; positive”.

`Cc1ccc2ccc([N+](=O)[O-])cc2c1`: the mutagenic call under setting [1] was “active; positive”.

For `CC(C)(O)[C@H]1Cc2cc3ccc(=O)oc3cc2O1`, the mutagenic call is “active; positive” (Test System: AMES SALMONELLA TYPHIMURIUM, Strain/Indicator: TA92, Metabolic Activation: NONE, Method: SPOT TEST); “active; positive” (Test System: AMES SALMONELLA TYPHIMURIUM, Strain/Indicator: TA92, Metabolic Activation: RAT, LIVER, S-9, AROCLOR 1254, Method: SPOT TEST); “inactive; negative” (Test System: AMES SALMONELLA TYPHIMURIUM, Strain/Indicator: TA94, Metabolic Activation: NONE, Method: SPOT TEST); “inactive; negative” (Test System: AMES SALMONELLA TYPHIMURIUM, Strain/Indicator: TA94, Metabolic Activation: RAT, LIVER, S-9, AROCLOR 1254, Method: SPOT TEST); “active; positive” (Test System: AMES SALMONELLA TYPHIMURIUM, Strain/Indicator: TA97, Metabolic Activation: NONE, Method: SPOT TEST); “active; positive” (Test System: AMES SALMONELLA TYPHIMURIUM, Strain/Indicator: TA97, Metabolic Activation: RAT, LIVER, S-9, AROCLOR 1254, Method: SPOT TEST). The mutagenic call is, setting by setting: (Test System: AMES SALMONELLA TYPHIMURIUM, Strain/Indicator: TA98, Metabolic Activation: NONE, Method: SPOT TEST) “active; positive”; (Test System: AMES SALMONELLA TYPHIMURIUM, Strain/Indicator: TA98, Metabolic Activation: RAT, LIVER, S-9, AROCLOR 1254, Method: SPOT TEST) “active; positive”; (Test System: AMES SALMONELLA TYPHIMURIUM, Strain/Indicator: TA100, Metabolic Activation: NONE, Method: SPOT TEST) “active; positive”; under setting [2], “active; positive”; (Test System: AMES SALMONELLA TYPHIMURIUM, Strain/Indicator: TA100, Metabolic Activation: RAT, LIVER, S-9, AROCLOR 1254, Method: SPOT TEST) “active; positive”; (Test System: AMES SALMONELLA TYPHIMURIUM, Strain/Indicator: TA102, Metabolic Activation: NONE, Method: SPOT TEST) “inactive; negative”. Further, the mutagenic call (Test System: AMES SALMONELLA TYPHIMURIUM, Strain/Indicator: TA102, Metabolic Activation: RAT, LIVER, S-9, AROCLOR 1254, Method: SPOT TEST) is “inactive; negative”.

In the case of `CC(C)(c1ccc(OCC2CO2)cc1)c1ccc(OCC2CO2)cc1` (configuration not stated), the mutagenic call (Test System: AMES SALMONELLA TYPHIMURIUM, Strain/Indicator: TA100, Metabolic Activation: HAMSTER, LIVER, S-9, AROCLOR 1254 (10%), Method: PREINCUBATION) is “active; positive”; the mutagenic call (Test System: AMES SALMONELLA TYPHIMURIUM, Strain/Indicator: TA100, Metabolic Activation: NONE, Method: PREINCUBATION) is “active; positive”; the mutagenic call under setting [2] is “active; positive”; the mutagenic call (Test System: AMES SALMONELLA TYPHIMURIUM, Strain/Indicator: TA100, Metabolic Activation: RAT LIVER S-9, PHENOBARBITAL/METHYLCHOLANTHRENE (2 OR 10%), Method: STANDARD PLATE) is “active; positive”; the mutagenic call (Test System: AMES SALMONELLA TYPHIMURIUM, Strain/Indicator: TA100, Metabolic Activation: RAT LIVER S-9, PHENOBARBITAL/METHYLCHOLANTHRENE (4%), Method: STANDARD PLATE) is “active; positive”; the mutagenic call (Test System: AMES SALMONELLA TYPHIMURIUM, Strain/Indicator: TA100, Metabolic Activation: RAT, LIVER, S-9, AROCLOR 1254 (10%), Method: PREINCUBATION) was “active; positive”. Also, the mutagenic call (Test System: AMES SALMONELLA TYPHIMURIUM, Strain/Indicator: TA1535, Metabolic Activation: HAMSTER, LIVER, S-9, AROCLOR 1254 (10%), Method: PREINCUBATION) was “active; positive”; the mutagenic call (Test System: AMES SALMONELLA TYPHIMURIUM, Strain/Indicator: TA1535, Metabolic Activation: NONE, Method: PREINCUBATION) was “active; positive”; the mutagenic call (Test System: AMES SALMONELLA TYPHIMURIUM, Strain/Indicator: TA1535, Metabolic Activation: NONE, Method: STANDARD PLATE) is “inactive; negative”; the mutagenic call (Test System: AMES SALMONELLA TYPHIMURIUM, Strain/Indicator: TA1535, Metabolic Activation: RAT LIVER S-9, PHENOBARBITAL/METHYLCHOLANTHRENE (4, 10 OR 20%), Method: STANDARD PLATE) was “active; positive”; the mutagenic call (Test System: AMES SALMONELLA TYPHIMURIUM, Strain/Indicator: TA1535, Metabolic Activation: RAT, LIVER, S-9, AROCLOR 1254 (10%), Method: PREINCUBATION) was “active; positive”; the mutagenic call (Test System: E. coli, Strain/Indicator: IC3327, Metabolic Activation: None, Method: Standard Plate) was “active; positive”. For the same molecule, the mutagenic call is “active; positive” (Test System: E. coli, Strain/Indicator: IC3327, Metabolic Activation: Rat, Liver, S-9, Phenobarbital-methylcholanthrene mix (4%) + 4 mM NADP, Method: Standard Plate); “active; positive” (Test System: E. coli, Strain/Indicator: IC3327, Metabolic Activation: Rat, Liver, S-9, Phenobarbital-methylcholanthrene mix (4%), Method: Standard Plate); “active; positive” (Test System: E. coli, Strain/Indicator: WP2 UVRA, Metabolic Activation: None, Method: Standard Plate); “inactive; negative (authors report as positive based on slope but revertants <2x backgroun” (Test System: E. coli, Strain/Indicator: WP2 UVRA, Metabolic Activation: Rat, Liver, S-9, Phenobarbital-methylcholanthrene mix (4%) + 4 mM NADP, Method: Standard Plate); “active; positive” (Test System: E. coli, Strain/Indicator: WP2 UVRA, Metabolic Activation: Rat, Liver, S-9, Phenobarbital-methylcholanthrene mix (4%), Method: Standard Plate).

As for `C1=Cc2c(ccc3nc4ccc5ccccc5c4cc23)CC1`, the mutagenic call reads like this: (Test System: AMES SALMONELLA TYPHIMURIUM, Strain/Indicator: TA98, Metabolic Activation: GUINEA PIG, LIVER, S-9, 3-METHYLCHOLANTHRENE, Method: STANDARD PLATE) “active; positive”; (Test System: AMES SALMONELLA TYPHIMURIUM, Strain/Indicator: TA100, Metabolic Activation: GUINEA PIG, LIVER, S-9, 3-METHYLCHOLANTHRENE, Method: STANDARD PLATE) “active; positive”.
